Assay results as given in BigSolDB 2.1.

Compound: Cc1ccc(S(=O)(=O)NC(=O)NN2CC3CCCC3C2)cc1 (stereo not drawn)
- solubility (mole fraction) (in DMF, 278.15 K): 0.0571
- solubility (mole fraction) (in DMF, 283.15 K): 0.0629
- solubility (mole fraction) (in DMF, 288.15 K): 0.0684
- solubility (mole fraction) (in DMF, 293.15 K): 0.0743
- solubility (mole fraction) (in DMF, 298.15 K): 0.0801
- solubility (mole fraction) (in DMF, 303.15 K): 0.0866
- solubility (mole fraction) (in DMF, 308.15 K): 0.0935
- solubility (mole fraction) (in DMF, 313.15 K): 0.101
- solubility (mole fraction) (in DMF, 318.15 K): 0.109
- solubility (mole fraction) (in THF, 278.15 K): 0.018
- solubility (mole fraction) (in THF, 283.15 K): 0.0217
- solubility (mole fraction) (in THF, 288.15 K): 0.0266
- solubility (mole fraction) (in THF, 293.15 K): 0.0318
- solubility (mole fraction) (in THF, 298.15 K): 0.0384
- solubility (mole fraction) (in THF, 303.15 K): 0.0462
- solubility (mole fraction) (in THF, 308.15 K): 0.0539
- solubility (mole fraction) (in THF, 313.15 K): 0.0635
- solubility (mole fraction) (in THF, 318.15 K): 0.076
- solubility (mole fraction) (in acetone, 278.15 K): 0.00883
- solubility (mole fraction) (in acetone, 283.15 K): 0.0103
- solubility (mole fraction) (in acetone, 288.15 K): 0.0121
- solubility (mole fraction) (in acetone, 293.15 K): 0.0141
- solubility (mole fraction) (in acetone, 298.15 K): 0.0166
- solubility (mole fraction) (in acetone, 303.15 K): 0.0191
- solubility (mole fraction) (in acetone, 308.15 K): 0.0219
- solubility (mole fraction) (in acetone, 313.15 K): 0.0252
- solubility (mole fraction) (in acetone, 318.15 K): 0.0291
- solubility (mole fraction) (in acetonitrile, 278.15 K): 0.00172
- solubility (mole fraction) (in acetonitrile, 283.15 K): 0.00211
- solubility (mole fraction) (in acetonitrile, 288.15 K): 0.00262
- solubility (mole fraction) (in acetonitrile, 293.15 K): 0.00319
- solubility (mole fraction) (in acetonitrile, 298.15 K): 0.0039
- solubility (mole fraction) (in acetonitrile, 303.15 K): 0.00473
- solubility (mole fraction) (in acetonitrile, 308.15 K): 0.00557
- solubility (mole fraction) (in acetonitrile, 313.15 K): 0.00658
- solubility (mole fraction) (in acetonitrile, 318.15 K): 0.00796
- solubility (mole fraction) (in chloroform, 278.15 K): 0.0581
- solubility (mole fraction) (in chloroform, 283.15 K): 0.0641
- solubility (mole fraction) (in chloroform, 288.15 K): 0.07
- solubility (mole fraction) (in chloroform, 293.15 K): 0.0773
- solubility (mole fraction) (in chloroform, 298.15 K): 0.0842
- solubility (mole fraction) (in chloroform, 303.15 K): 0.0919
- solubility (mole fraction) (in chloroform, 308.15 K): 0.1
- solubility (mole fraction) (in chloroform, 313.15 K): 0.109
- solubility (mole fraction) (in chloroform, 318.15 K): 0.119
- solubility (mole fraction) (in cyclohexanone, 278.15 K): 0.0112
- solubility (mole fraction) (in cyclohexanone, 283.15 K): 0.0133
- solubility (mole fraction) (in cyclohexanone, 288.15 K): 0.0155
- solubility (mole fraction) (in cyclohexanone, 293.15 K): 0.0181
- solubility (mole fraction) (in cyclohexanone, 298.15 K): 0.0209
- solubility (mole fraction) (in cyclohexanone, 303.15 K): 0.0243
- solubility (mole fraction) (in cyclohexanone, 308.15 K): 0.0278
- solubility (mole fraction) (in cyclohexanone, 313.15 K): 0.0322
- solubility (mole fraction) (in cyclohexanone, 318.15 K): 0.0371
- solubility (mole fraction) (in ethanol, 278.15 K): 0.000739
- solubility (mole fraction) (in ethanol, 283.15 K): 0.000911
- solubility (mole fraction) (in ethanol, 288.15 K): 0.00113
- solubility (mole fraction) (in ethanol, 293.15 K): 0.00137
- solubility (mole fraction) (in ethanol, 298.15 K): 0.00169
- solubility (mole fraction) (in ethanol, 303.15 K): 0.00203
- solubility (mole fraction) (in ethanol, 308.15 K): 0.00249
- solubility (mole fraction) (in ethanol, 313.15 K): 0.00296
- solubility (mole fraction) (in ethanol, 318.15 K): 0.00358
- solubility (mole fraction) (in ethyl acetate, 278.15 K): 0.00146
- solubility (mole fraction) (in ethyl acetate, 283.15 K): 0.00174
- solubility (mole fraction) (in ethyl acetate, 288.15 K): 0.00212
- solubility (mole fraction) (in ethyl acetate, 293.15 K): 0.00248
- solubility (mole fraction) (in ethyl acetate, 298.15 K): 0.00294
- solubility (mole fraction) (in ethyl acetate, 303.15 K): 0.00351
- solubility (mole fraction) (in ethyl acetate, 308.15 K): 0.00411
- solubility (mole fraction) (in ethyl acetate, 313.15 K): 0.00477
- solubility (mole fraction) (in ethyl acetate, 318.15 K): 0.00558
- solubility (mole fraction) (in ethyl formate, 278.15 K): 0.00188
- solubility (mole fraction) (in ethyl formate, 283.15 K): 0.00239
- solubility (mole fraction) (in ethyl formate, 288.15 K): 0.00297
- solubility (mole fraction) (in ethyl formate, 293.15 K): 0.00364
- solubility (mole fraction) (in ethyl formate, 298.15 K): 0.00453
- solubility (mole fraction) (in ethyl formate, 303.15 K): 0.00549
- solubility (mole fraction) (in ethyl formate, 308.15 K): 0.00673
- solubility (mole fraction) (in ethyl formate, 313.15 K): 0.0082
- solubility (mole fraction) (in ethyl formate, 318.15 K): 0.00976
- solubility (mole fraction) (in isobutanol, 278.15 K): 0.00042
- solubility (mole fraction) (in isobutanol, 283.15 K): 0.000544
- solubility (mole fraction) (in isobutanol, 288.15 K): 0.000709
- solubility (mole fraction) (in isobutanol, 293.15 K): 0.000916
- solubility (mole fraction) (in isobutanol, 298.15 K): 0.00114
- solubility (mole fraction) (in isobutanol, 303.15 K): 0.00146
- solubility (mole fraction) (in isobutanol, 308.15 K): 0.0018
- solubility (mole fraction) (in isobutanol, 313.15 K): 0.00226
- solubility (mole fraction) (in isobutanol, 318.15 K): 0.00286
- solubility (mole fraction) (in isopropanol, 278.15 K): 0.000332
- solubility (mole fraction) (in isopropanol, 283.15 K): 0.000439
- solubility (mole fraction) (in isopropanol, 288.15 K): 0.000579
- solubility (mole fraction) (in isopropanol, 293.15 K): 0.000738
- solubility (mole fraction) (in isopropanol, 298.15 K): 0.000945
- solubility (mole fraction) (in isopropanol, 303.15 K): 0.0012
- solubility (mole fraction) (in isopropanol, 308.15 K): 0.00151
- solubility (mole fraction) (in isopropanol, 313.15 K): 0.00192
- solubility (mole fraction) (in isopropanol, 318.15 K): 0.00241
- solubility (mole fraction) (in methanol, 278.15 K): 0.00122
- solubility (mole fraction) (in methanol, 283.15 K): 0.00149
- solubility (mole fraction) (in methanol, 288.15 K): 0.00178
- solubility (mole fraction) (in methanol, 293.15 K): 0.00216
- solubility (mole fraction) (in methanol, 298.15 K): 0.00257
- solubility (mole fraction) (in methanol, 303.15 K): 0.00304
- solubility (mole fraction) (in methanol, 308.15 K): 0.00358
- solubility (mole fraction) (in methanol, 313.15 K): 0.00428
- solubility (mole fraction) (in methanol, 318.15 K): 0.00497
- solubility (mole fraction) (in methyl acetate, 278.15 K): 0.00229
- solubility (mole fraction) (in methyl acetate, 283.15 K): 0.00283
- solubility (mole fraction) (in methyl acetate, 288.15 K): 0.00339
- solubility (mole fraction) (in methyl acetate, 293.15 K): 0.00418
- solubility (mole fraction) (in methyl acetate, 298.15 K): 0.00499
- solubility (mole fraction) (in methyl acetate, 303.15 K): 0.00588
- solubility (mole fraction) (in methyl acetate, 308.15 K): 0.00699
- solubility (mole fraction) (in methyl acetate, 313.15 K): 0.00838
- solubility (mole fraction) (in methyl acetate, 318.15 K): 0.00982
- solubility (mole fraction) (in n-butanol, 278.15 K): 0.000624
- solubility (mole fraction) (in n-butanol, 283.15 K): 0.000787
- solubility (mole fraction) (in n-butanol, 288.15 K): 0.000984
- solubility (mole fraction) (in n-butanol, 293.15 K): 0.00123
- solubility (mole fraction) (in n-butanol, 298.15 K): 0.00152
- solubility (mole fraction) (in n-butanol, 303.15 K): 0.00192
- solubility (mole fraction) (in n-butanol, 308.15 K): 0.0023
- solubility (mole fraction) (in n-butanol, 313.15 K): 0.00286
- solubility (mole fraction) (in n-butanol, 318.15 K): 0.00344
- solubility (mole fraction) (in n-propanol, 278.15 K): 0.000655
- solubility (mole fraction) (in n-propanol, 283.15 K): 0.000831
- solubility (mole fraction) (in n-propanol, 288.15 K): 0.00103
- solubility (mole fraction) (in n-propanol, 293.15 K): 0.00129
- solubility (mole fraction) (in n-propanol, 298.15 K): 0.00162
- solubility (mole fraction) (in n-propanol, 303.15 K): 0.00199
- solubility (mole fraction) (in n-propanol, 308.15 K): 0.00238
- solubility (mole fraction) (in n-propanol, 313.15 K): 0.00291
- solubility (mole fraction) (in n-propanol, 318.15 K): 0.0035
- solubility (mole fraction) (in sec-butanol, 278.15 K): 0.000505
- solubility (mole fraction) (in sec-butanol, 283.15 K): 0.000643
- solubility (mole fraction) (in sec-butanol, 288.15 K): 0.000834
- solubility (mole fraction) (in sec-butanol, 293.15 K): 0.00106
- solubility (mole fraction) (in sec-butanol, 298.15 K): 0.00133
- solubility (mole fraction) (in sec-butanol, 303.15 K): 0.00166
- solubility (mole fraction) (in sec-butanol, 308.15 K): 0.00205
- solubility (mole fraction) (in sec-butanol, 313.15 K): 0.00258
- solubility (mole fraction) (in sec-butanol, 318.15 K): 0.00322
- solubility (mole fraction) (in toluene, 278.15 K): 0.000307
- solubility (mole fraction) (in toluene, 283.15 K): 0.000395
- solubility (mole fraction) (in toluene, 288.15 K): 0.000499
- solubility (mole fraction) (in toluene, 293.15 K): 0.000634
- solubility (mole fraction) (in toluene, 298.15 K): 0.000789
- solubility (mole fraction) (in toluene, 303.15 K): 0.000979
- solubility (mole fraction) (in toluene, 308.15 K): 0.00119
- solubility (mole fraction) (in toluene, 313.15 K): 0.0015
- solubility (mole fraction) (in toluene, 318.15 K): 0.00181
